The source of these data is US9795597B2, “Cyclopropylamines as LSD1 inhibitors” (GlaxoSmithKline Intellectual Property (No.2) Limited, priority 2011, dated 2017).

Structures are written as SMILES.

For test [1], the target named is T1, MAO-B (Homo sapiens, UniProt P27338).
T1 construct: purchased Gentest-BD Biosciences 456284
T1 sequence (P27338 1-520): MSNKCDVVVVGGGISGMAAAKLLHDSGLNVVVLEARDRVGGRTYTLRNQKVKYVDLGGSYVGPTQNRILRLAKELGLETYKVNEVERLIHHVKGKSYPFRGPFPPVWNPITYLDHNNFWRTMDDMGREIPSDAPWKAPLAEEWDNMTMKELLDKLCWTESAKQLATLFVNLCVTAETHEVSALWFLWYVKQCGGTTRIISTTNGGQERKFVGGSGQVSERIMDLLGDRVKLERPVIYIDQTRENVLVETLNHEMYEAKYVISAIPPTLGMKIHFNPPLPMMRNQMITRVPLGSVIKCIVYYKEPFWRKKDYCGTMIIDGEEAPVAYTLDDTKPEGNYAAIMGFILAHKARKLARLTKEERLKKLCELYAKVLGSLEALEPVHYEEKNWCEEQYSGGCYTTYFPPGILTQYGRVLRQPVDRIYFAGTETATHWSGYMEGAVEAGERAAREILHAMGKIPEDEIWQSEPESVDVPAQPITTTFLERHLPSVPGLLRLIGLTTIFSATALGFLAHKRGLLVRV
Put plainly: Biochemical assay for MAO-B activity (FLINT, benzylamine/amplex red). The following applies: average of two or more tests; 30 min preincubation of enzyme and compound; read-out: MAOB PIC50 MEAN (converted). How it is done: Biochemical Assay for MAO-B Activity
The MAO-B FLINT assay is performed in a buffer containing 50 mM potassium phospate, pH 7.4, in milliQ ultrapure water. […] The enzyme and test compound are allowed to incubate together for 30 minutes at room temperature. Five microliters of the substrate mix are then added to each well of the plate to initiate the reaction. The plates are covered, protected from light and allowed to incubate for one hour at room temperature. […] Percent inhibition is calculated based on no compound and no enzyme controls, and inhibition curves are then plotted to determine PIC50 values.

The target of test [2] is T2, LSD1 (Homo sapiens, UniProt O60341).
T2 construct: made in house
Put plainly: Biochemical assay for LSD-1 activity (luminescence, H3K4 dimethylated peptide substrate). Particulars: average of two or more tests; 30 min preincubation of enzyme and compound; read-out: LSD1 PIC50 MEAN (converted). As for the experimental part:
Biochemical Assay for LSD-1 Activity
The LSD-1 luminescence assay is performed in a buffer containing 25 mM Tris, pH 7.5, 50 mM potassium chloride, 0.02% heat-denatured BSA, 2 mM CHAPS and milliQ ultrapure water. […] The enzyme and test compound are allowed to incubate together for 30 minutes at room temperature. Two microliters of the substrate mix are then added to each well of the plate to initiate the reaction. The plates are covered, protected from light and allowed to incubate for two hours at room temperature. Then, 4 uL of HyPerBlu peroxide detection luminescence reagent (Lumigen/Beckman Coulter, cat# HPB-00005) is added to each well to quench the demethylase reaction and generate the peroxide-dependent luminescence signal. The plates are then incubated for 15-30 minutes in the dark at room temperature prior to being read for Luminescence using a Perkin Elmer Viewlux plate reader. Percent inhibition is calculated based on no compound and no enzyme controls, and inhibition curves are then plotted to determine PIC50 values.

Turning to `c1ccc(C2C[C@@H]2NCC2CCCNC2)cc1` (stereo in doubt) [Example 16, [trans-2-Phenylcyclopropyl](3-piperidinylmethyl)amine], the IC50 in test [1] was 39800 nM; in test [2], 7.94 nM.
In the same order, the values of `O=C(O)CCN1CCC(CN[C@@H]2C[C@H]2c2ccccc2)CC1` [Example 71, 3-(4-((((1R,2S)-2-Phenylcyclopropyl)amino)methyl)piperidin-1-yl)propanoic acid] are 7940 nM and 100 nM.
The corresponding values for `O=C(O)c1ccc(CCN2CCC(CN[C@@H]3C[C@H]3c3ccccc3)CC2)cc1` [Example 123, 4-(2-(4-((((1R,2S)-2-phenylcyclopropyl)amino)methyl)piperidin-1-yl)ethyl)benzoic acid] are 20000 nM and 31.6 nM.
The corresponding values for `CC(=O)N1CCC(CN[C@@H]2C[C@H]2c2ccccc2)CC1` (relative stereo) [Example 15, 1-(4-(((trans-2-Phenylcyclopropyl)amino)methyl)piperidin-1-yl)ethanone] are 15800 nM and 316 nM.
Take `CS(=O)(=O)c1ccc(CN2CCC(CN[C@@H]3C[C@H]3c3ccccc3)CC2)cc1` (relative stereo) [Example 43, trans-N-((1-(4-(Methylsulfonyl)benzyl)piperidin-4-yl)methyl)-2-phenylcyclopropanamine]: the IC50 in test [1] was 501 nM; in test [2], 6.31 nM.
In the same order, the values of `CC(C)(C)OC(=O)N1CCC(CN[C@@H]2C[C@H]2c2ccccc2)CC1` [Example 2, 1,1-Dimethylethyl 4-({[(1R,2S)-2-phenylcyclopropyl]amino}methyl)-1-piperidinecarboxylate] are 631 nM and 39.8 nM.
The corresponding values for `Cc1noc(C)c1S(=O)(=O)N1CCC(CN[C@@H]2C[C@H]2c2ccccc2)CC1` (relative stereo) [Example 100, trans-N-((1-((3,5-dimethylisoxazol-4-yl)sulfonyl)piperidin-4-yl)methyl)-2-phenylcyclopropanamine] are 15800 nM and 79.4 nM.
Regarding `c1ccc([C@@H]2C[C@H]2NCC2CCCCC2)cc1` (relative stereo) [Example 7, trans-N-(Cyclohexylmethyl)-2-phenylcyclopropanamine], the IC50 is 398 nM in test [1] and 158 nM in test [2].
Take `O=C(O)c1ccc(CN2CCC(CN[C@@H]3C[C@H]3c3ccccc3)CC2)cc1` [Example 29, 4-((4-((((1R,2S)-2-phenylcyclopropyl)amino)methyl)piperidin-1-yl)methyl)benzoic acid]: the IC50 in test [1] was 25100 nM; in test [2] it was 158 nM.
The corresponding values for `O=S(=O)(Nc1ccc([C@@H]2C[C@H]2NCC2CCNCC2)cc1)c1ccccc1` (relative stereo) [Example 91, N-(4-((trans)-2-((piperidin-4-ylmethyl)amino)cyclopropyl)phenyl)benzenesulfonamide] are 15800 nM and 6.31 nM.
The corresponding values for `c1ccc(C2C[C@@H]2NCC2CNCCO2)cc1` (stereo in doubt) [Example 25, N-(2-Morpholinylmethyl)-trans-2-phenylcyclopropanamine] are 12600 nM and 20 nM.
The corresponding values for `CC(C)(C)OC(=O)N1CCC(CN[C@H]2C[C@@H]2c2ccccc2)CC1` [Example 3, 1,1-Dimethylethyl 4-({[(1S,2R)-2-phenylcyclopropyl]amino}methyl)-1-piperidinecarboxylate] are 7940 nM and 631 nM.
Consider `CC(N[C@H]1CC1c1ccccc1)C1CCNCC1` (stereo in doubt) [Example 24, [trans-2-Phenylcyclopropyl][1-(4-piperidinyl)ethyl]amine], for which the IC50 in test [1] is 63100 nM; in test [2], 10 nM.
In the same order, the values of `O=C(O)c1ccc(CN2CCC(CN[C@H]3C[C@@H]3c3ccccc3)CC2)cc1` (relative stereo) [Example 26, 4-((4-(((trans-2-phenylcyclopropyl)amino)methyl)piperidin-1-yl)methyl)benzoic acid] are 50100 nM and 200 nM.
Consider `Fc1ccccc1C[N+]1(Cc2ccccc2F)CCC(CN[C@@H]2C[C@H]2c2ccccc2)CC1` (relative stereo) [Example 35, 1,1-Bis(2-fluorobenzyl)-4-(((trans-2-phenylcyclopropyl)amino)methyl)piperidin-1-ium chloride], for which the IC50 is 31600 nM in test [1] and 15.8 nM in test [2].
The corresponding values for `OCCN1CCC(CN[C@@H]2C[C@H]2c2ccccc2)CC1` (relative stereo) [Example 11, 2-(4-(((trans-2-Phenylcyclopropyl)amino)methyl)piperidin-1-yl)ethanol] are 31600 nM and 12.6 nM.
For `O=S(=O)(c1ccccc1)N1CCC(CN[C@@H]2C[C@H]2c2ccccc2)CC1` (relative stereo) [Example 13, trans-2-Phenyl-N-((1-(phenylsulfonyl)piperidin-4-yl)methyl)cyclopropanamine], the IC50 was 5010 nM in test [1] and 50.1 nM in test [2].
Regarding `O=C(Nc1ccccc1)N1CCC(CN[C@@H]2C[C@H]2c2ccccc2)CC1` (relative stereo) [Example 12, N-Phenyl-4-(((trans-2-phenylcyclopropyl)amino)methyl)piperidine-1-carboxamide], the results for the IC50 in test [1] and in test [2] were 2000 nM and 79.4 nM, respectively.
Consider `CN1CCC(CN[C@@H]2C[C@H]2c2ccccc2)CC1` (relative stereo) [Example 20, [(1-Methyl-4-piperidinyl)methyl][trans-2-phenylcyclopropyl]amine], for which the IC50 was 25100 nM in test [1] and 6.31 nM in test [2].
With `O=C(O)CN1CCC(CN[C@H]2C[C@@H]2c2ccccc2)CC1` (relative stereo) [Example 27, 2-(4-(((trans-2-phenylcyclopropyl)amino)methyl)piperidin-1-yl)acetic acid], the IC50 in test [1] was 63100 nM; in test [2] it was 200 nM.
For `O=C(OCc1ccccc1)N1CCC(CN[C@@H]2C[C@H]2c2ccccc2)CC1` (relative stereo) [Example 18, Benzyl 4-(((trans-2-phenylcyclopropyl)amino)methyl)piperidine-1-carboxylate], the IC50 in test [1] is 631 nM; in test [2], 31.6 nM.
The corresponding values for `CC(C)(C)OC(=O)N1CCCC(CN[C@H]2CC2c2ccccc2)CC1` (stereo in doubt) [Example 21, 1,1-Dimethylethyl 4-({[trans-2-phenylcyclopropyl]amino}methyl)hexahydro-1H-azepine-1-carboxylate] are 15800 nM and 2000 nM.
In the same order, the values of `O=C(O)CCN1CC[C@H](CN[C@@H]2C[C@H]2c2ccccc2)C1` [Example 150, 3-((R)-3-((((1R,2S)-2-Phenylcyclopropyl)amino)methyl)pyrrolidin-1-yl)propanoic acid] are 79400 nM and 25.1 nM.
With `OB(O)c1ccc(CN2CCC(CN[C@@H]3C[C@H]3c3ccccc3)CC2)cc1` (relative stereo) [Example 57, (4-((4-(((trans-2-phenylcyclopropyl)amino)methyl)piperidin-1-yl)methyl)phenyl)boronic acid], the values for the IC50 in test [1] and in test [2] were 31600 nM and 7.94 nM, respectively.
